In US8124793B2, “Derivatives of ethylene methanedisulfonate as cancer chemotherapeutic agents” (priority 2007, dated 2012):

Key:
Assay type in all cases: cell-based
[1] = system: T-47D; assay: NCI screen, growth of human tumor cells: Breast Cancer T-47D; settings: T-47D (Breast Cancer), 10^−4 molar
Description: (§1) In the NCI screening process, each compound was tested and described by a minimum of 60 data points. The test data include, but are not limited to the type of cancer, the molar concentration used in the screen, and the percent growth of the cancer. In some cases, NMR and elemental analysis were used for structural assignment.

[2] = system: CAKI-1; assay: NCI screen, growth of human tumor cells: Renal Cancer CAKI-1; settings: CAKI-1 (Renal Cancer), 10^−4 molar
Method in brief: (§2)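 At least 60 data points describe each compound tested by NCI. Cancer type, molar concentration in the screen and percent growth make up the recorded data.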

[3] = system: U-251; assay: NCI screen, growth of human tumor cells: CNS Cancer U-251; settings: U-251 (CNS Cancer), 10^−4 molar
Method in brief: as §2

[4] = system: HL-60 (TB); assay: NCI screen, growth of human tumor cells: Leukemia HL-60 (TB); settings: HL-60 (TB) (Leukemia), 10^−4 molar
Description: as §1

[5] = system: SF-295; assay: NCI screen, growth of human tumor cells: CNS Cancer SF-295
Method in brief: as §2

[6] = system: UACC-62; assay: NCI screen, growth of human tumor cells: Melanoma UACC-62
Method in brief: as §2

[7] = system: human cancer cells; assay: NCI screen summary over the cancers tested (negative growth of human cancer cells); settings: 10^−4 M conc.; cancers with negative growth / cancers tested
Description: as §1
The derivatives in the tables are grouped using the same category as in the tables 1-6.

[8] = system: MCF 7; assay: NCI screen, growth of human tumor cells: Breast Cancer MCF 7; settings: MCF 7 (Breast Cancer), 10^−4 molar
Method in brief: as §2

[9] = system: SF-539; assay: NCI screen, growth of human tumor cells: CNS Cancer SF-539; settings: SF-539 (CNS Cancer), 10^−4 molar
Method in brief: as §2

[10] = system: LOXIMVI; assay: NCI screen, growth of human tumor cells: Melanoma LOXIMVI; settings: for % Growth: LOXIMVI
Method in brief: as §2

[11] = system: SF-268; assay: NCI screen, growth of human tumor cells: CNS Cancer SF-268; settings: SF-268 (CNS Cancer), 10^−4 molar
Method in brief: as §2

[12] = system: BT-549; assay: NCI screen, growth of human tumor cells: Breast Cancer BT-549; settings: BT-549 (Breast Cancer), 10^−4 molar
Method in brief: as §2

[13] = system: MCF7/ADR-RES; assay: NCI screen, growth of human tumor cells: Breast Cancer MCF7/ADR-RES; settings: MCF7/ADR-RES (Breast Cancer), 10^−4 molar
Method in brief: as §2

[14] = system: ACHN; assay: NCI screen, growth of human tumor cells: Renal Cancer ACHN; settings: ACHN (Renal Cancer), 10^−4 molar
Method in brief: as §2

[15] = system: SNB-75; assay: NCI screen, growth of human tumor cells: CNS Cancer SNB-75; settings: SNB-75 (CNS Cancer), 10^−4 molar
Method in brief: as §2

[16] = system: SW620; assay: NCI screen, growth of human tumor cells: Colon Cancer SW620
Description: as §1

[17] = system: NCI-H460; assay: NCI screen, growth of human tumor cells: Non-Small Cell Lung NCI-H460; settings: NCI-H460 (Non-Small Cell Lung), 10^−4 molar
Method in brief: as §2

[18] = system: UO-31; assay: NCI screen, growth of human tumor cells: Renal Cancer UO-31; settings: UO-31 (Renal Cancer), 10^−4 molar
Method in brief: as §2

[19] = system: 786-0; assay: NCI screen, growth of human tumor cells: Renal Cancer 786-0; settings: 786-0 (Renal Cancer), 10^−4 molar
Method in brief: as §2

[20] = system: SR; assay: NCI screen, growth of human tumor cells: Leukemia SR; settings: SR (Leukemia), 10^−4 molar
Method in brief: as §2

[21] = system: HOP-92; assay: NCI screen, growth of human tumor cells: Non-Small Cell Lung HOP-92; settings: HOP-92 (Non-Small Cell Lung), 10^−4 molar
Method in brief: as §2

`C[Si](C)(OCCS(=O)(=O)O)C1S(=O)(=O)OCCOS1(=O)=O` [NSC 674991] was tested, and the “percent of growth of human tumor cells” value [1] was 18%, the “percent of growth of human tumor cells” value [2] was −8% and the “percent of growth of human tumor cells” value [3] was 9%. For the same compound, the “percent of growth of human tumor cells” value [4] was 15%, the “% Growth” value ([5]; SF-295, 10^−4 molar) was −31% and the “% Growth” value ([5]; SF-295, 10^−5 molar) was 31%. For the same compound, the “% Growth” value ([6]; UACC-62, 10^−4 molar) was 5%, the “% Growth” value ([6]; UACC-62, 10^−5 molar) was 57% and the “Percentage of cancers showing negative growth cancers tested” value [7] was 10^−4 M conc. = 6/21 = 28.6%. For the same compound, the “percent of growth of human tumor cells” value [8] was 22%, the “percent of growth of human tumor cells” value [9] was 4% and the “percent of growth of human tumor cells” value ([10]; LOXIMVI (Melanoma), 10^−4 molar) was 10%. For the same compound, the “% Growth” value ([10]; 10^−4 molar) was −90%, the “% Growth” value ([10]; 10^−5 molar) was 63% and the “percent of growth of human tumor cells” value [11] was 11%. For the same compound, the “percent of growth of human tumor cells” value [12] was 11%, the “percent of growth of human tumor cells” value [13] was 20% and the “percent of growth of human tumor cells” value [14] was −10%. The “percent of growth of human tumor cells” value [15] was −24%, the “% Growth” value ([16]; SW620, 10^−4 molar) was −49% and the “% Growth” value ([16]; SW620, 10^−5 molar) was 34%. For the same compound, the “% Growth” value ([16]; SW620, 10^−6 molar) was 25%, the “percent of growth of human tumor cells” value [17] was 22% and the “percent of growth of human tumor cells” value [18] was 29%. For the same compound, the “percent of growth of human tumor cells” value [19] was 16%, the “percent of growth of human tumor cells” value [20] was 20% and the “percent of growth of human tumor cells” value [21] was 22%.
